Measured values taken from the NIST ThermoML archive (doi:10.1021/acs.jced.9b00752).
“And” between values parts separate entries of the source, which are not always exact repeats. Equal values may be shown once. Numbers after ± are expanded uncertainties.

Assay: mn = molality of the nth substance listed, in mol/kg
Settings: 100 kPa, Liquid, Vibrating tube method

In the case of N[C@@H](Cc1ccc(O)cc1)C(=O)O [3-(p-hydroxyphenyl)-L-alanine] + O, the mass density (278.65 K, m1 = 0.0005) is reported as 999.962 ± 0.1 kg/m3, the mass density (278.65 K, m1 = 0.001) is reported as 999.995 ± 0.1 kg/m3 and the mass density (278.65 K, m1 = 0.0011) is reported as 1000.02 ± 0.1 kg/m3. It also gave a mass density (278.65 K, m1 = 0.0022) of 1000.09 ± 0.1 kg/m3, a mass density (278.65 K, m1 = 0.0026) of 1000.11 ± 0.1 kg/m3 and a mass density (278.65 K, m1 = 0.0035) of 1000.18 ± 0.1 kg/m3. The mass density (278.65 K, m1 = 0.0036) was 1000.18 ± 0.1 kg/m3, the mass density (278.65 K, m1 = 0.0038) was 1000.18 ± 0.1 kg/m3 and the mass density (278.65 K, m1 = 0.0045) was 1000.23 ± 0.1 kg/m3 and 1000.24 ± 0.1 kg/m3. The mass density (278.65 K, m1 = 0.0047) was 1000.24 ± 0.1 kg/m3, the mass density (278.65 K, m1 = 0.0053) was 1000.28 ± 0.1 kg/m3 and 1000.29 ± 0.1 kg/m3 and the mass density (278.65 K, m1 = 0.0055) was 1000.28 ± 0.1 kg/m3. The mass density (279.15 K, m1 = 0.0005) was 999.948 ± 0.1 kg/m3, the mass density (279.15 K, m1 = 0.001) was 999.981 ± 0.1 kg/m3 and the mass density (279.15 K, m1 = 0.0011) was 1000.01 ± 0.1 kg/m3. The mass density (279.15 K, m1 = 0.0022) was 1000.08 ± 0.1 kg/m3, the mass density (279.15 K, m1 = 0.0026) was 1000.1 ± 0.1 kg/m3 and the mass density (279.15 K, m1 = 0.0035) was 1000.16 ± 0.1 kg/m3. For the same compound, the mass density (279.15 K, m1 = 0.0036) was 1000.16 ± 0.1 kg/m3, the mass density (279.15 K, m1 = 0.0038) was 1000.17 ± 0.1 kg/m3 and the mass density (279.15 K, m1 = 0.0045) was 1000.22 ± 0.1 kg/m3 and 1000.23 ± 0.1 kg/m3. The mass density (279.15 K, m1 = 0.0047) was 1000.22 ± 0.1 kg/m3, the mass density (279.15 K, m1 = 0.0053) was 1000.27 ± 0.1 kg/m3 and 1000.28 ± 0.1 kg/m3 and the mass density (279.15 K, m1 = 0.0055) was 1000.27 ± 0.1 kg/m3. The mass density (279.65 K, m1 = 0.0005) was 999.932 ± 0.1 kg/m3, the mass density (279.65 K, m1 = 0.001) was 999.964 ± 0.1 kg/m3 and the mass density (279.65 K, m1 = 0.0011) was 999.989 ± 0.1 kg/m3. The mass density (279.65 K, m1 = 0.0022) was 1000.06 ± 0.1 kg/m3, the mass density (279.65 K, m1 = 0.0026) was 1000.08 ± 0.1 kg/m3 and the mass density (279.65 K, m1 = 0.0035) was 1000.14 ± 0.1 kg/m3. The mass density (279.65 K, m1 = 0.0036) was 1000.14 ± 0.1 kg/m3, the mass density (279.65 K, m1 = 0.0038) was 1000.15 ± 0.1 kg/m3 and the mass density (279.65 K, m1 = 0.0045) was 1000.2 ± 0.1 kg/m3 and 1000.21 ± 0.1 kg/m3. For the same compound, the mass density (279.65 K, m1 = 0.0047) was 1000.21 ± 0.1 kg/m3, the mass density (279.65 K, m1 = 0.0053) was 1000.25 ± 0.1 kg/m3 and 1000.26 ± 0.1 kg/m3 and the mass density (279.65 K, m1 = 0.0055) was 1000.25 ± 0.1 kg/m3. For the same compound, the mass density (280.15 K, m1 = 0.0005) was 999.91 ± 0.1 kg/m3, the mass density (280.15 K, m1 = 0.001) was 999.941 ± 0.1 kg/m3 and the mass density (280.15 K, m1 = 0.0011) was 999.968 ± 0.1 kg/m3. It also gave a mass density (280.15 K, m1 = 0.0022) of 1000.04 ± 0.1 kg/m3, a mass density (280.15 K, m1 = 0.0026) of 1000.06 ± 0.1 kg/m3 and a mass density (280.15 K, m1 = 0.0035) of 1000.12 ± 0.1 kg/m3. The mass density (280.15 K, m1 = 0.0036) was 1000.12 ± 0.1 kg/m3, the mass density (280.15 K, m1 = 0.0038) was 1000.13 ± 0.1 kg/m3 and the mass density (280.15 K, m1 = 0.0045) was 1000.18 ± 0.1 kg/m3 and 1000.19 ± 0.1 kg/m3. For the same compound, the mass density (280.15 K, m1 = 0.0047) was 1000.18 ± 0.1 kg/m3, the mass density (280.15 K, m1 = 0.0053) was 1000.23 ± 0.1 kg/m3 and 1000.24 ± 0.1 kg/m3 and the mass density (280.15 K, m1 = 0.0055) was 1000.23 ± 0.1 kg/m3. For the same compound, the mass density (280.65 K, m1 = 0.0005) was 999.886 ± 0.1 kg/m3, the mass density (280.65 K, m1 = 0.001) was 999.918 ± 0.1 kg/m3 and the mass density (280.65 K, m1 = 0.0011) was 999.946 ± 0.1 kg/m3. For the same compound, the mass density (280.65 K, m1 = 0.0022) was 1000.01 ± 0.1 kg/m3, the mass density (280.65 K, m1 = 0.0026) was 1000.03 ± 0.1 kg/m3 and the mass density (280.65 K, m1 = 0.0035) was 1000.1 ± 0.1 kg/m3. The mass density (280.65 K, m1 = 0.0036) was 1000.1 ± 0.1 kg/m3, the mass density (280.65 K, m1 = 0.0038) was 1000.1 ± 0.1 kg/m3 and the mass density (280.65 K, m1 = 0.0045) was 1000.15 ± 0.1 kg/m3 and 1000.16 ± 0.1 kg/m3. For the same compound, the mass density (280.65 K, m1 = 0.0047) was 1000.16 ± 0.1 kg/m3, the mass density (280.65 K, m1 = 0.0053) was 1000.2 ± 0.1 kg/m3 and 1000.21 ± 0.1 kg/m3 and the mass density (280.65 K, m1 = 0.0055) was 1000.2 ± 0.1 kg/m3. The mass density (281.15 K, m1 = 0.0005) was 999.858 ± 0.1 kg/m3, the mass density (281.15 K, m1 = 0.001) was 999.89 ± 0.1 kg/m3 and the mass density (281.15 K, m1 = 0.0011) was 999.917 ± 0.1 kg/m3. It also gave a mass density (281.15 K, m1 = 0.0022) of 999.984 ± 0.1 kg/m3, a mass density (281.15 K, m1 = 0.0026) of 1000 ± 0.1 kg/m3 and a mass density (281.15 K, m1 = 0.0035) of 1000.07 ± 0.1 kg/m3. For the same compound, the mass density (281.15 K, m1 = 0.0036) was 1000.07 ± 0.1 kg/m3, the mass density (281.15 K, m1 = 0.0038) was 1000.08 ± 0.1 kg/m3 and the mass density (281.15 K, m1 = 0.0045) was 1000.13 ± 0.1 kg/m3 and 1000.14 ± 0.1 kg/m3. For the same compound, the mass density (281.15 K, m1 = 0.0047) was 1000.13 ± 0.1 kg/m3, the mass density (281.15 K, m1 = 0.0053) was 1000.17 ± 0.1 kg/m3 and 1000.18 ± 0.1 kg/m3 and the mass density (281.15 K, m1 = 0.0055) was 1000.17 ± 0.1 kg/m3. For the same compound, the mass density (281.65 K, m1 = 0.0005) was 999.824 ± 0.1 kg/m3, the mass density (281.65 K, m1 = 0.001) was 999.857 ± 0.1 kg/m3 and the mass density (281.65 K, m1 = 0.0011) was 999.883 ± 0.1 kg/m3. The mass density (281.65 K, m1 = 0.0022) was 999.951 ± 0.1 kg/m3, the mass density (281.65 K, m1 = 0.0026) was 999.971 ± 0.1 kg/m3 and the mass density (281.65 K, m1 = 0.0035) was 1000.03 ± 0.1 kg/m3. The mass density (281.65 K, m1 = 0.0036) was 1000.04 ± 0.1 kg/m3, the mass density (281.65 K, m1 = 0.0038) was 1000.04 ± 0.1 kg/m3 and the mass density (281.65 K, m1 = 0.0045) was 1000.09 ± 0.1 kg/m3 and 1000.1 ± 0.1 kg/m3. The mass density (281.65 K, m1 = 0.0047) was 1000.1 ± 0.1 kg/m3, the mass density (281.65 K, m1 = 0.0053) was 1000.14 ± 0.1 kg/m3 and 1000.15 ± 0.1 kg/m3 and the mass density (281.65 K, m1 = 0.0055) was 1000.14 ± 0.1 kg/m3. For the same compound, the mass density (282.15 K, m1 = 0.0005) was 999.79 ± 0.1 kg/m3, the mass density (282.15 K, m1 = 0.001) was 999.821 ± 0.1 kg/m3 and the mass density (282.15 K, m1 = 0.0011) was 999.848 ± 0.1 kg/m3. The mass density (282.15 K, m1 = 0.0022) was 999.916 ± 0.1 kg/m3, the mass density (282.15 K, m1 = 0.0026) was 999.937 ± 0.1 kg/m3 and the mass density (282.15 K, m1 = 0.0035) was 1000 ± 0.1 kg/m3. The mass density (282.15 K, m1 = 0.0036) was 1000 ± 0.1 kg/m3, the mass density (282.15 K, m1 = 0.0038) was 1000.01 ± 0.1 kg/m3 and the mass density (282.15 K, m1 = 0.0045) was 1000.06 ± 0.1 kg/m3 and 1000.07 ± 0.1 kg/m3. The mass density (282.15 K, m1 = 0.0047) was 1000.06 ± 0.1 kg/m3, the mass density (282.15 K, m1 = 0.0053) was 1000.1 ± 0.1 kg/m3 and 1000.12 ± 0.1 kg/m3 and the mass density (282.15 K, m1 = 0.0055) was 1000.1 ± 0.1 kg/m3. It also gave a mass density (282.65 K, m1 = 0.0005) of 999.751 ± 0.1 kg/m3, a mass density (282.65 K, m1 = 0.001) of 999.781 ± 0.1 kg/m3 and a mass density (282.65 K, m1 = 0.0011) of 999.809 ± 0.1 kg/m3. It also gave a mass density (282.65 K, m1 = 0.0022) of 999.876 ± 0.1 kg/m3, a mass density (282.65 K, m1 = 0.0026) of 999.897 ± 0.1 kg/m3 and a mass density (282.65 K, m1 = 0.0035) of 999.961 ± 0.1 kg/m3. The mass density (282.65 K, m1 = 0.0036) was 999.962 ± 0.1 kg/m3, the mass density (282.65 K, m1 = 0.0038) was 999.967 ± 0.1 kg/m3 and the mass density (282.65 K, m1 = 0.0045) was 1000.02 ± 0.1 kg/m3 and 1000.03 ± 0.1 kg/m3. The mass density (282.65 K, m1 = 0.0047) was 1000.02 ± 0.1 kg/m3, the mass density (282.65 K, m1 = 0.0053) was 1000.07 ± 0.1 kg/m3 and 1000.08 ± 0.1 kg/m3 and the mass density (282.65 K, m1 = 0.0055) was 1000.07 ± 0.1 kg/m3. For the same compound, the mass density (283.15 K, m1 = 0.0005) was 999.71 ± 0.1 kg/m3, the mass density (283.15 K, m1 = 0.001) was 999.741 ± 0.1 kg/m3 and the mass density (283.15 K, m1 = 0.0011) was 999.765 ± 0.1 kg/m3. It also gave a mass density (283.15 K, m1 = 0.0022) of 999.835 ± 0.1 kg/m3, a mass density (283.15 K, m1 = 0.0026) of 999.854 ± 0.1 kg/m3 and a mass density (283.15 K, m1 = 0.0035) of 999.919 ± 0.1 kg/m3. The mass density (283.15 K, m1 = 0.0036) was 999.92 ± 0.1 kg/m3, the mass density (283.15 K, m1 = 0.0038) was 999.925 ± 0.1 kg/m3 and the mass density (283.15 K, m1 = 0.0045) was 999.976 ± 0.1 kg/m3 and 999.985 ± 0.1 kg/m3. For the same compound, the mass density (283.15 K, m1 = 0.0047) was 999.98 ± 0.1 kg/m3, the mass density (283.15 K, m1 = 0.0053) was 1000.02 ± 0.1 kg/m3 and 1000.03 ± 0.1 kg/m3 and the mass density (283.15 K, m1 = 0.0055) was 1000.02 ± 0.1 kg/m3.
